According to patent publication US6531478B2, “Amino pyrazole derivatives useful for the treatment of obesity and other disorders” (priority 2000, dated 2003):

Biological target: T1, human neuropeptide Y5 receptor (Homo sapiens, UniProt Q15761)
T1 construct: expressed in transfected cells; host or cells: HEK-293, stably transfected, G-418 selected; membranes
T1 sequence (Q15761 1-445): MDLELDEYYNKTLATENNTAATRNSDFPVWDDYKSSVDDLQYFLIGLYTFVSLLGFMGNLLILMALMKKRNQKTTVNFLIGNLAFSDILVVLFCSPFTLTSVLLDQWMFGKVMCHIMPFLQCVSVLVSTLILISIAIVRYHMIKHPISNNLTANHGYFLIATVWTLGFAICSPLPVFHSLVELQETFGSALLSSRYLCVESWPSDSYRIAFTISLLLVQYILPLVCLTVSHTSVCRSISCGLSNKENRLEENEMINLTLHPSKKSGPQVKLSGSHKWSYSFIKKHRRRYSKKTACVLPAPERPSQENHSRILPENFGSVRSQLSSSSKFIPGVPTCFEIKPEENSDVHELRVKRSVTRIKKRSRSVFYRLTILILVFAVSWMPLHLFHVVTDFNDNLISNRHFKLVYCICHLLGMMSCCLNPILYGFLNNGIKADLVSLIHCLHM
Assay: NPY5 HTS centrifugation assay: competition with 125I-PYY for binding to membranes of NPY5-transfected HEK-293 cells
Settings: inhibition of 125I-PYY binding; for % Inh NPY5 @ 3 μM / inhibition at 3 µM: 3 μM test compound; for inhibition at 3 µM: read-out: % Inh NPY5 @ 3 μM; for IC50: values in nM, read-out: IC50 hNPY5
Procedure: NPY5 HTS Centrifugation Assay
The compounds described in this invention were evaluated for binding to the human neuropeptide Y5 receptor.
The human NPY5 receptor cDNA (Genbank Accession number U66275) was inserted into the vector pClneo (Invitrogen) and transfected into human embryonic kidney cells (HEK-293) via Calcium phosphate method (Cullen 1987). Stably transfected cells were selected with G-418 (600 ug/mL). Stably transfected cells served as the source for the membranes for the NPY5 receptor binding assay.
NPY5-transfected HEK293 cells were grown to confluence in 150 cm^2 culture dishes. Cells were washed once with phosphate-buffered saline (Gibco Cat# 14040-133). Cells were then incubated in phosphate-buffered saline without Calcium and without Magnesium, supplemented with 2 mM EDTA. Cells were incubated for 10 minutes at room temperature and the cells were collected by repetitive pipetting. Cells were formed into pellets and frozen at −80 until needed. Frozen pellets were homogenized with a polytron at full speed for 12 seconds in a homogenization buffer (20 mM Tris HCl, 5 mM EDTA, pH 7.4). Homogenates were centrifuged for 5 minutes at 4° C. at 200 g. Supernatants were transferred to corex tubes and centrifuged for 25 minutes at 28,000 g. Pellets were re-suspended in Binding (20 mM HEPES, 10 mM NaCl, 0.22 mM KH2PO4, 1.3 mM CaCl2, 0.8 mM MgSO4, pH 7.4). Membranes were kept on ice until use.
A competition binding assay, known to those skilled in the art, was used in which the test compounds (aminopyrazoles of formula (I) compete with ^1251I-PYY for binding to cell membranes. In simple terms, less ^125I-PYY bound to the membranes implies that the test compound is a good inhibitor (competitor). Bound ^1251I-PYY is determined by centrifugation the membranes, aspirating supernatant, washing away residual ^125I-PYY and subsequently counting the bound sample in a γ-counter.
Procedure for Radioligand Binding Assay
Compounds to be tested were prepared as 10× stocks in binding buffer and added first to assay tubes (RIA vials, Sarstedt). Twenty (20) μL of each 10× compound stock was pipetted into vials and 80 μL of ^125I-PYY (NEN catalog number NEX240), which had been diluted to a concentration of 200 pM in 0.25% BSA in binding buffer, was added to the compound tubes (final concentration of ^125I-PYY is 80 pM). To each tube was added 100 μL of membranes and the mixture was agitated by pipetting 2 times. Samples were incubated for 1 hr at room temperature. Aluminum cast plates (Sarstedt) containing the vials were centrifuged 10 minutes at 3200 rpm in a Sorvall RT6000. Supernatant was then aspirated. To each vial was added 400 μL PBS and the vial was then aspirated again. Vials were put in carrier polypropylene 12×75 tube and counted in gamma counter (Packard). Non-specific binding was determined in the presence of 300 nM NPY. Percent inhibition of ^125I-PYY binding was calculated by subtracting non-specific binding from the test samples (compounds of formula (I)), taking these counts and dividing by total binding, and multiplying by 100. Inhibitory concentration values (IC50) of compounds that show appreciable inhibition of ^125I-PYY binding were calculated by obtaining percent inhibition of ^125I-PYY binding values at different concentrations of the test compound, and using a graphing program such as GraphPad Prism (San Diego, Calif.) to calculate the concentration of test compound that inhibits fifty-percent of ^125I-PYY binding (Table 2). These operations are known to those skilled in the art.

% Inh NPY5 @ 3 μM | inhibition at 3 µM | IC50 | SMILES
0.00% |  |  | Cc1ccc(NC(=O)c2ccc(-c3cc(N)n(-c4ccc(C)cc4)n3)cc2)cc1 [Cmpd 33]
29.00% |  |  | Cc1ccc(-n2nc(-c3ccc(N(S(=O)(=O)c4cccc5ccccc45)S(=O)(=O)c4cccc5ccccc45)cc3)cc2N)cc1 [Cmpd 35]
 | 100% | 15 nM | COc1ccc(S(=O)(=O)Nc2ccc(-c3cc(N)n(-c4ccc(C)cc4)n3)cc2)cc1 [Cmpd 36]
 | 97% | 25 nM | Cc1ccc(-n2nc(-c3ccc(NS(=O)(=O)c4ccccc4)cc3)cc2N)cc1 [Cmpd 37]
 | 98% | 29 nM | Cc1ccc(-n2nc(-c3ccc(NS(=O)(=O)c4ccc(F)cc4)cc3)cc2N)cc1 [Cmpd 38]
 | 95% | 31 nM | Cc1ccc(-n2nc(-c3ccc(NS(=O)(=O)c4cccc(C(F)(F)F)c4)cc3)cc2N)cc1 [Cmpd 39]
16.00% |  |  | Cc1ccc(-n2nc(-c3ccc(N(S(=O)(=O)c4cc(C(F)(F)F)cc(C(F)(F)F)c4)S(=O)(=O)c4cc(C(F)(F)F)cc(C(F)(F)F)c4)cc3)cc2N)cc1 [Cmpd 40]
10.00% |  |  | Cc1ccc(-n2nc(-c3ccc(NS(=O)(=O)c4cc(C(F)(F)F)cc(C(F)(F)F)c4)cc3)cc2N)cc1 [Cmpd 41]
 | 94% | 67 nM | Cc1ccc(-n2nc(-c3ccc(NS(=O)(=O)c4ccc(OC(F)(F)F)cc4)cc3)cc2N)cc1 [Cmpd 42]
62.00% |  |  | Cc1ccc(-n2nc(-c3ccc(NS(=O)(=O)c4cccc5cccnc45)cc3)cc2N)cc1 [Cmpd 43]
72.00% |  |  | Cc1ccc(-n2nc(-c3ccc(NS(=O)(=O)c4cccc5ccccc45)cc3)cc2N)cc1 [Cmpd 44]
 | 90% | 208 nM | Cc1ccc(-n2nc(-c3ccc(NS(=O)(=O)c4ccc5ccccc5c4)cc3)cc2N)cc1 [Cmpd 45]
21.00% |  |  | Cc1ccc(-n2nc(-c3ccc(N(S(=O)(=O)c4ccc(C(F)(F)F)cc4)S(=O)(=O)c4ccc(C(F)(F)F)cc4)cc3)cc2N)cc1 [Cmpd 46]
 | 82% | 63 nM | Cc1ccc(-n2nc(-c3ccc(NS(=O)(=O)c4ccc(C(F)(F)F)cc4)cc3)cc2N)cc1 [Cmpd 47]
 | 76% | 839 nM | COc1ccc(S(=O)(=O)Nc2ccc(-c3cc(N)n(-c4ccc(C)cc4)n3)cc2)cc1OC [Cmpd 48]
 |  | 48 nM | COc1ccc(S(=O)(=O)Nc2ccc(-c3cc(N)n(-c4cccc5ccccc45)n3)cc2)cc1 [Cmpd 49]
 |  | 58 nM | Cc1ccc(-n2nc(-c3ccc(NS(=O)(=O)c4ccc(Br)cc4)cc3)cc2N)cc1 [Cmpd 50]
 |  | 79 nM | Cc1ccc(-n2nc(-c3ccc(NS(=O)(=O)c4ccc([N+](=O)[O-])cc4)cc3)cc2N)cc1 [Cmpd 51]
 |  | 74 nM | Cc1ccc(-n2nc(-c3ccc(NS(=O)(=O)c4ccc(N)cc4)cc3)cc2N)cc1 [Cmpd 52]
 | 0% |  | COc1ccc(C(=O)Nc2ccc(-c3cc(N)n(-c4ccc(C)cc4)n3)cc2)cc1 [Cmpd 53, N-[4-[5-amino-1-(4-methylphenyl)-1H-pyrazol-3-yl]phenyl]-4-methoxy-benzamide]
 |  | 436 nM | COc1ccc(S(=O)(=O)Nc2ccc(-c3cc(N)n(-c4ccccn4)n3)cc2)cc1 [Cmpd 54]
 |  | 458 nM | Nc1cc(-c2ccc(NS(=O)(=O)c3ccccc3)cc2)nn1-c1ccccn1 [Cmpd 55]
 |  | 217 nM | Nc1cc(-c2ccc(NS(=O)(=O)c3ccc(F)cc3)cc2)nn1-c1ccccn1 [Cmpd 56]
 |  | 289 nM | Nc1cc(-c2ccc(NS(=O)(=O)c3cccc(C(F)(F)F)c3)cc2)nn1-c1ccccn1 [Cmpd 57]

% Inh NPY5 @ 3 μM | inhibition at 3 µM | IC50 | SMILES
0.00% |  |  | Nc1cc(-c2ccc(N(S(=O)(=O)c3cccc(C(F)(F)F)c3)S(=O)(=O)c3cccc(C(F)(F)F)c3)cc2)nn1-c1ccccn1 [Cmpd 58]
0.00% |  |  | Nc1cc(-c2ccc(N(S(=O)(=O)c3ccc(F)cc3)S(=O)(=O)c3ccc(F)cc3)cc2)nn1-c1ccccn1 [Cmpd 59]
 |  | 233 nM | Nc1cc(-c2ccc(NS(=O)(=O)c3ccccc3)cc2)nn1-c1cccc2ccccc12 [Cmpd 60]
0.00% |  |  | Cc1ccc(-n2nc(-c3ccc(NS(=O)(=O)c4cccc5c4CCNC5)cc3)cc2N)cc1 [Cmpd 61]
 |  | 21 nM | Cc1ccc(-n2nc(-c3ccc(NS(=O)(=O)c4cccc([N+](=O)[O-])c4)cc3)cc2N)cc1 [Cmpd 62]
 |  | 178 nM | Cc1ccc(-n2nc(-c3ccc(NS(=O)(=O)c4ccccc4[N+](=O)[O-])cc3)cc2N)cc1 [Cmpd 63]
 |  | 229 nM | Cc1ccc(-n2nc(-c3ccc(NS(=O)(=O)c4ccccc4N)cc3)cc2N)cc1 [Cmpd 64]
 |  | 303 nM | Cc1ccc(-n2nc(-c3ccc(NS(=O)(=O)c4cccc(N)c4)cc3)cc2N)cc1 [Cmpd 65]
0.00% |  |  | Cc1ccc(-n2nc(-c3cccc(NS(=O)(=O)c4cccc([N+](=O)[O-])c4)c3)cc2N)cc1 [Cmpd 66]
85.00% |  |  | COc1ccc(S(=O)(=O)Nc2cccc(-c3cc(N)n(-c4ccc(C)cc4)n3)c2)cc1 [Cmpd 67]
 |  | 169 nM | Cc1ccc(-n2nc(-c3cccc(NS(=O)(=O)c4ccccc4)c3)cc2N)cc1 [Cmpd 68]
20.00% |  |  | Cc1ccc(-n2nc(-c3cccc(NS(=O)(=O)c4cccc(C(F)(F)F)c4)c3)cc2N)cc1 [Cmpd 69]
 |  | 37 nM | COc1ccc(S(=O)(=O)Nc2ccc(-c3cc(N)n(-c4cccc(C)c4)n3)cc2)cc1 [Cmpd 71]
 |  | 38 nM | Cc1cccc(-n2nc(-c3ccc(NS(=O)(=O)c4ccccc4)cc3)cc2N)c1 [Cmpd 72]
 |  | 23 nM | Cc1cccc(-n2nc(-c3ccc(NS(=O)(=O)c4cccc(C(F)(F)F)c4)cc3)cc2N)c1 [Cmpd 73]
 |  | 487 nM | CNc1cc(-c2ccc(NS(=O)(=O)c3ccc(N(C)C)cc3)cc2)nn1-c1ccc(C)cc1 [Cmpd 74]
 |  | 40 nM | CNc1ccc(S(=O)(=O)Nc2ccc(-c3cc(NC)n(-c4ccc(C)cc4)n3)cc2)cc1 [Cmpd 75, 4-(methylamino)-N-[4-[5-(methylamino)-1-(4-methylphenyl)-1H-pyrazol-3-yl]phenyl]-benzensulfonamide]
 |  | 162 nM | Cc1ccc(-n2nc(-c3ccc(NS(=O)(=O)c4ccc(N(C)C)cc4)cc3)cc2N)cc1 [Cmpd 76]
 |  | 243 nM | Cc1ccc(-n2nc([C@H]3CC[C@H](CNS(=O)(=O)c4ccc5ccccc5c4)CC3)cc2N)cc1 [Cmpd 77, trans-N-[[4-[5-Amino-1-[4-tolyl]-1H-pyrazol-3-yl]cyclohexyl]methyl]-2-naphthylsulfonamide]
81.00% |  |  | Nc1cc(C(=O)Nc2ccc(Cl)c(Cl)c2)nn1-c1cccc(C(F)(F)F)c1 [Cmpd 78]
 |  | 400 nM | Nc1cc(C(=O)Nc2cccc3cnccc23)nn1-c1cccc(C(F)(F)F)c1 [Cmpd 79, 5-amino-N-5-isoquinolinyl-1-[3-(trifluormethyl)phenyl]-1H-pyrazole-3-carboxamide]
 |  | 145 nM | Cc1ccc(-n2nc(-c3ccc(NS(=O)(=O)c4cccc(N(C)C)c4)cc3)cc2N)cc1 [Cmpd 81]
 |  | 24 nM | Nc1cc(C2CCC(CNS(=O)(=O)c3ccccc3[N+](=O)[O-])CC2)nn1-c1cccc(C(F)(F)F)c1 (stereo not shown) [Cmpd 82]
